In US20250197952A1, “TRANSGENIC SOYBEAN EVENT GM_CSM63717 AND COMPOSITIONS AND METHODS FOR DETECTION AND USES THEREOF” (Monsanto Technology LLC, priority 2023, published 2025):

tested on: Cas12a gRNA target sites on Glycine max A3335 chromosome 13; assay: gRNA/LbCas12a target site editing in stably transformed soybean plants (AmpSeq); assay type: in vivo; conditions: plants with target site edits / plants examined x 100
Excerpt: CRISPR Cas12a-based cleavage of DNA sequences requires the use of gRNAs that can target specific sequences (target sites) comprising a Cas12a-recognizable protospacer adjacent motif (PAM) sequence so as to facilitate Cas12a enzymatic activity and DNA cleavage. The 10 cM window was scanned for the presence of the LbCas12a-preferred PAM (TTTV, where “V” is A, C, or G) that were unique in the genome (i.e., that only occur once in the genome). This set was additionally filtered so as to identify gRNA target sites that were more than 2 kb from a coding region, more than 1 kb from a small RNA hotspot, and comprised 700 nucleotides (nt) of unique sequence on either side. A suite of genomic target sites was identified from this analysis and 12 were chosen for testing based on additional factors like GC content, and absence of potential off-targets. PAM sites are italicized and shown in bold. The corresponding 23 bp gRNA spacer (SP) sequences are also identified and represented by SEQ ID NOs:223-234.
Three Agrobacterium T-DNA vectors were designed to evaluate gRNA and LbCas12a nuclease mediated cleavage at the selected target sites. Each T-DNA vector contained 3 cassettes between the left and right borders on the T-DNA: an aadA selection marker cassette, an LbCas12a Cas12a cassette, and a multiplexed gRNA cassette. The aadA and LbCas12a cassettes were common across the three vectors. The aadA expression cassette contained the aadA gene (also known as Tn7 adenylyltransferase (AAD(3″)) from E. coli under the control of a constitutive promoter, and targeted the aadA protein to the chloroplast for selection of transgenic events resistant to spectinomycin and streptomycin. The LbCas12a cassette comprised a plant codon optimized LbCas12a (SEQ ID NO:236) flanked by the same nuclear localization signal sequence (NLS) at the 5′ and 3′ ends (SEQ ID NO:235) and a 3′UTR sequence (SEQ ID NO:237) derived from a Medicago truncatula gene. The gene cassette comprising NLS-Cas12aLbCas12a-NLS sequence was fused 3′ to an ATGGCG sequence and operably linked to a chimeric promoter sequence (SEQ ID NO:238) comprising an enhancer region from the Banana Streak Virus (Strain Acuminata Vietnam) and promoter with the 5′ UTR region from the Dahlia mosaic virus.
The guide RNA cassette in vector pG947 comprised a Glycine max Pol III promoter operably linked to a transcribable sequence comprising in order a DR sequence (SEQ ID NO:239), spacer SP10 (SEQ ID NO:232), DR (SEQ ID NO: 239), spacer SP11 (SEQ ID NO:233), DR (SEQ ID NO: 239), spacer SP2 (SEQ ID NO:224), DR (SEQ ID NO: 239), spacer SP12 (SEQ ID NO:234), DR and a poly (T)7 terminator. The guide RNA cassette in vector pG949 comprised a Glycine max Pol III promoter operably linked to a transcribable sequence comprising in order a DR sequence (SEQ ID NO:239), spacer SP9 (SEQ ID NO:231), DR (SEQ ID NO: 239), spacer SP7 (SEQ ID NO:229), DR (SEQ ID NO: 239), spacer SP1 (SEQ ID NO:223), DR (SEQ ID NO: 239), spacer SP5 (SEQ ID NO:227), DR (SEQ ID NO: 239) and a poly (T)7 terminator. The guide RNA cassette in vector pG950 comprised a Glycine max Pal III promoter operably linked to a transcribable sequence comprising in order a DR sequence (SEQ II) NO:239), spacer SP3 (SEQ ID NO:225), DR (SEQ ID NO: 239), spacer SP6 (SEQ ID NO:228), DR (SEQ ID NO: 239), spacer SP4 (SEQ ID NO:226), DR (SEQ ID NO: 239), spacer P8 (SEQ ID NO:230), DR and a poly (T)7 terminator.
The three plant transformation vectors were introduced into soybean seed-derived embryo explants through Agrobacterium-mediated transformation using methods known in the art. Transformed plants were selected on spectinomycin. Genomic DNA was extracted from leaf samples harvested from regenerated plantlets. Each targeted region was amplified by PCR. […]

Row | Compound | Target Editing Rate (%)
1 | GmTS2: LbCas12a gRNA for target site GmTS2 (SEQ ID NO:212), spacer SP2 (SEQ ID NO:224) (guide CTTCCTGAGGAAATTTGGTTTCA; expressed or natural sequence) | 7.3%
2 | GmTS7: LbCas12a gRNA for target site GmTS7 (SEQ ID NO:217), spacer SP7 (SEQ ID NO:229) (guide CCTATATCTGTTTCAGTGATTGC; expressed or natural sequence) | 23.8%
3 | GmTS3: LbCas12a gRNA for target site GmTS3 (SEQ ID NO:213), spacer SP3 (SEQ ID NO:225) (guide GCAAGATCCGCTGCCTGCTTGAG; expressed or natural sequence) | 8.3%
4 | GmTS12: LbCas12a gRNA for target site GmTS12 (SEQ ID NO:222), spacer SP12 (SEQ ID NO:234) (guide GACATATATGCTATATCATTCTC; expressed or natural sequence) | 72%
5 | GmTS10: LbCas12a gRNA for target site GmTS10 (SEQ ID NO:220), spacer SP10 (SEQ ID NO:232) (guide ATCAAAGCTAAAGCATAAGCATC; expressed or natural sequence) | 45.1%
6 | GmTS6: LbCas12a gRNA for target site GmTS6 (SEQ ID NO:216), spacer SP6 (SEQ ID NO:228) (guide CATGCTGTCATCATCTGTTCACT; expressed or natural sequence) | 17.9%
7 | GmTS1: LbCas12a gRNA for target site GmTS1 (SEQ ID NO:211), spacer SP1 (SEQ ID NO:223) (guide CAAACATCACATGGCCGGATAAG; expressed or natural sequence) | 2.4%
8 | GmTS11: LbCas12a gRNA for target site GmTS11 (SEQ ID NO:221), spacer SP11 (SEQ ID NO:233) (guide GCTCGCTATATATATGTGTCACA; expressed or natural sequence) | 48.8%
9 | GmTS9: LbCas12a gRNA for target site GmTS9 (SEQ ID NO:219), spacer SP9 (SEQ ID NO:231) (guide CGGAGTAGCAGAGAGGAGATTCG; expressed or natural sequence) | 36.9%
10 | GmTS5: LbCas12a gRNA for target site GmTS5 (SEQ ID NO:215), spacer SP5 (SEQ ID NO:227) (guide CTAAATCGCATAGCTTGTGTGTT; expressed or natural sequence) | 14.3%
11 | GmTS4: LbCas12a gRNA for target site GmTS4 (SEQ ID NO:214), spacer SP4 (SEQ ID NO:226) (guide CCTTGATTTGGATTAACCCGCCA; expressed or natural sequence) | 8.3%

tested on: wild-type control in the same transformation germplasm; assay: Controlled environment PPO herbicide tolerance trial, wild-type control; assay type: in vivo, Glycine max; conditions: 1× rate, sprayed at V3 stage, greenhouse, rated 11 days after herbicide applications
Description: (§1) An efficacy trial was conducted in the controlled environment to evaluate tolerance of event Gm_CSM63717 to various PPO herbicides. The experiment included the lead event (Gm_CSM63717) and a wild-type control in the same transformation germplasm, and consisted of nine individual PPO herbicide treatments, all at 1× rates. These included butafenacil, flumioxazin, fomesafen, lactofen, pyroflufen, saflufenacil, Voraxor (trifludimoxazin and salflufenacil), sulfentrazone, cyclopropylmethyl (2-{2-chloro-4-fluoro-5-[3-methyl-2,6-dioxo-4-(trifluoromethyl)-3,6-dihydropyrimidin-1(2H)-yl]phenoxy}phenoxy)acetate, and an untreated control. The herbicide formulations contained 1% (v/v) Crop Oil Concentrate (COC, Prime Oil, Winfield Solutions, LLC, P. O. Box 64589, St. Paul, MN 55164-0589) for sulfentrazone, fomesafen, lactofen, or 1% (v/v) methylated seed oil (Destiny® HC, Winfield Solutions, LLC, P. O. Box 64589, St. Paul, MN 55164-0589) for flumioxazin, saflufenacil, Voraxor, pyroflufen, butafenacil, and cyclopropylmethyl (2-{2-chloro-4-fluoro-5-[3-methyl-2,6-dioxo-4-(trifluoromethyl)-3,6-dihydropyrimidin-1(2H)-yl]phenoxy}phenoxy)acetate. There were 10 replications per treatment. The plants were grown under standard greenhouse conditions, and were sprayed with each herbicide at V3 stage, and were visually rated for herbicide injury 11 days after herbicide applications.

Row | Compound | Injury (%) WT Control
12 | Cn1c(C(F)(F)F)cc(=O)n(-c2cc(Oc3ccccc3OCC(=O)OCC3CC3)c(Cl)cc2F)c1=O [cyclopropylmethyl (2-{2-chloro-4-fluoro-5-[3-methyl-2,6-dioxo-4-(trifluoromethyl)-3,6-dihydropyrimidin-1(2H)-yl]phenoxy}phenoxy)acetate] | 89%

tested on: soybean event Gm_CSM63717; assay: Controlled environment PPO herbicide tolerance trial, event Gm_CSM63717; assay type: in vivo, Glycine max; conditions: 1× rate, sprayed at V3 stage, greenhouse, rated 11 days after herbicide applications
Description: as §1

Row | Compound | Injury (%) Gm_CSM63717
13 | Cn1c(C(F)(F)F)cc(=O)n(-c2cc(Oc3ccccc3OCC(=O)OCC3CC3)c(Cl)cc2F)c1=O [cyclopropylmethyl (2-{2-chloro-4-fluoro-5-[3-methyl-2,6-dioxo-4-(trifluoromethyl)-3,6-dihydropyrimidin-1(2H)-yl]phenoxy}phenoxy)acetate] | 0%
